Measured values: patent publication US20230141988A1, “PHARMACEUTICAL COMPOSITION FOR USE IN THE TREATMENT OF NEUROLOGICAL DISEASES” (Aclipse One Inc., priority 2020, published 2023)
Several values for one entry are separate records, joined by “and”; a condition that tells them apart may be missing. Identical values can stand only once. Like-named read-outs stand apart in the source and are kept apart here.

Assays:
[1] = male, SD, rat, in vivo, iv, 0.88 mg/kg, 1 h
Method: (§1) The vehicle for the IV, subcutaneous, PO and IN formulation contained “0.1% sodium metabisulfite solution”.
(§2) Male SD rats were purchased from Si Bei Fu Laboratory Animal Technology Co. Ltd (Beijing, China). The animals were about 8 weeks old with body weights of 200-300 g on the dosing date. The animals were housed in a 12-hour light/12-hour dark cycle environment and had free access to food and water. All animals were fasted overnight and fed after 4 hours collection.
(§3) Plasma samples were collected from jugular vein at each time point after IV, subcutaneous, PO and IN administrations.
(§4) About 200 μL of blood samples were collected from each animal via jugular vein. These blood samples were placed into the tubes containing K2EDTA. And centrifugation at 3000 g for 10 minutes in a 4° C. centrifuge. The completion time from collection was less than 30 min. The stabilizing agent of ascorbic acid at 200 mg/mL was added in a proportion of 10% in plasma. The plasma samples were stored in a freezer at −75±15° C. prior to analysis. The completion time from collection was less than 60 min.
(§5) Calibration standard working solutions were prepared at concentrations of 2, 5, 10, 20, 50, 100, 500, 1000, 5000 and 10000 ng/mL by serial dilution of the standard stock solution in 50% acetonitrile in water. Quality control working solutions at concentrations of 5, 10, 20, 500 and 8000 ng/mL were prepared by serial dilution of the standard stock solution in 50% acetonitrile in water. These QC samples were prepared on the day of analysis in the same way as calibration standards.
(§6) For plasma samples, 2 μL of each calibration standard working solution (2, 5, 10, 20, 50, 100, 500, 1000, 5000 and 10000 ng/mL) was added to 20 μL of the blank SD rat plasma (with 10% 200 mg/mL ascorbic acid) to achieve calibration standards of 0.2-1000 ng/mL (0.2, 0.5, 1, 2, 5, 10, 50, 100, 500, 1000 ng/mL) in a total volume of 22 μL. Quality Control (QC) samples at 0.5 ng/mL (low-1), 1 ng/mL (low-2) and 2 ng/mL (low-3), 50 ng/mL (mid), 800 ng/mL (high) for plasma were prepared independently for those used for the calibration curves. These QC samples were prepared on the day of analysis in the same way as calibration standards. The total volumes of 22 μL of standards, 22 μL of QC samples and 22 μL of unknown samples (20 μL of unknown plasma (with 10% 200 mg/mL ascorbic acid) with 2 μL 50% acetonitrile) were added to 200 μL of acetonitrile containing IS to precipitate proteins. Then the samples were vortexed for 30 sec. After centrifugation at 4° C., 4700 rpm for 30 min, and supernatant was diluted 2 times with water, 10 μL of the diluted supernatant was injected into the LC-MS/MS system for quantitative analysis.
All the samples were processed on ice.
(§7) The LC-MS/MS system consisted of two Shimadzu LC-30AD pumps, a DGU-20A5R degasser, a Rack changer II and LCMS-8060 LC/MS/MS instrument mass spectrometer.
(§8) OD-3R Particle size 3 μm 4.6 mm×150 mm column at room temperature. The mobile phase was composed of A: Water (5 mM Ammonium Acetate); B: Ethanol (5 mM Ammonium Acetate). The flow rate was 0.5 mL/min. The injection volume was 10 μL.
(§9) A multiple reaction monitoring (MRM) method was selected for quantitative analysis. […] The instrument parameters were set as follows: ion spray voltage: 8060; heating gas flow: 10 L/min; interface temperature: 250° C.; DL temperature: 220° C.; heat block temperature: 400° C.; drying gas flow: 10 L/min.
(§10) Data acquisition was performed by Lab Solutions version 5.89 Software (Shimadzu). All concentration data was reported with 3 significant figures. Data statistics were performed using Excel 2010 software.
(§11) The linear trapezoidal algorithm was used for AUC calculation.

in vivo [2] = conditions: male, SD, rat, iv, 0.88 mg/kg
Method: as §1, §2, §3, §4, §5, §6
All the samples were processed on ice.
as §7, §8, §9, §10, §11

[3] = mouse, in vivo
Method: (§12) 9 male C57BL/6J mice following administration of a single subcutaneous dose of 4.40 mg/kg. The vehicle for the subcutaneous formulation contained “0.1% sodium metabisulfite solution”.
(§13) Male C57BL/6J mice were purchased from Si Bei Fu Laboratory Animal Technology Co. Ltd (Beijing, China). The animals were about 8 weeks old with body weights of 20-30 g on the dosing date. The animals were housed in a 12-hour light/12-hour dark cycle environment and had free access to food and water. All animals were fasted overnight and fed after 4 hours collection.
(§14) For group 1, plasma samples were collected from dorsal metatarsal vein at each time point after subcutaneous administrations.
(§15) For plasma samples, about 30 μL or 300 μL of blood samples were collected from each animal via dorsal metatarsal vein or heart. These blood samples were placed into the tubes containing K2EDTA. And centrifugation at 3000 g for 10 minutes in a 4° C. centrifuge. The completion time from collection was less than 30 min. The stabilizing agent of ascorbic acid at 200 mg/mL was added in a proportion of 10% in plasma. The plasma samples were stored in a freezer at −75±15° C. prior to analysis. The completion time from collection was less than 60 min.
(§16) For brain and CSF samples, The animals were fully exsanguinated with a rising concentration of CO2 gas prior to CSF and brain collection.
(§17) For CSF collection, incision was made by scissors on the neck of the rats to expose the foramen magnum. A syringe fitted with a venoclysis needle was used to sample the CSF, the tip of the needle was inserted into the membrane of foramen magnum about 1-2 mm, and a negative pressure was applied by pulling a stopcock a small length of the syringe to extract CSF fluids into a tube. The stopcock was further actuated to until a sufficient amount of CSF was collected. There should be no blood in the CSF fluid. A stabilizing agent of ascorbic acid at 200 mg/mL was added in a proportion of 10% in CSF.
(§18) For brain collection. Brain samples were collected at an adopted time point, and washed 3 times with cold saline, then dried with clean gauze and put into the weighed tube, quick frozen in an ice box and kept at −75±15° C. All brain samples were weighted and homogenized with phosphate buffered saline (PBS) by brain weight (g) to PBS volume (mL) ratio 1:3 before analysis. The stabilizing agent of ascorbic acid at 200 mg/mL was added in a proportion of 10% in grain homogenate. The actual concentration was the detected value multiplied by the dilution factor. Brain samples were collected at designed time point, quickly homogenized and kept at −75±15° C.
(§19) Calibration standard working solutions were prepared at concentrations of 2, 5, 10, 20, 50, 100, 500, 1000, 5000 and 10000 ng/mL by serial dilution of the standard stock solution in 50% acetonitrile in water. Quality control working solutions at concentrations of 5, 10, 500 and 8000 ng/mL were prepared by serial dilution of the standard stock solution in 50% acetonitrile in water. These QC samples were prepared on the day of analysis in the same way as calibration standards.
(§20) For plasma and brain samples, 3 μL of each calibration standard working solution (2, 5, 10, 20, 50, 100, 500, 1000, 5000 and 10000 ng/mL) was added to 30 μL of the blank C57BL/6J mouse plasma or brain homogenate (with 10% 200 mg/mL ascorbic acid) to achieve calibration standards of 0.2-1000 ng/mL (0.2, 0.5, 1, 2, 5, 10, 50, 100, 500, 1000 ng/mL) in a total volume of 33 μL. Quality Control (QC) samples at 0.5 ng/mL (low-1), 1 ng/mL (low-2), 50 ng/mL (mid), 800 ng/mL (high) for plasma were prepared independently for those used for the calibration curves. These QC samples were prepared on the day of analysis in the same way as calibration standards.

in vivo [4] = conditions: male, C57BL/6J, mouse
Method: as §12, §13, §14, §15, §16, §17, §18, §19, §20

[5] = Pharmacokinetic and brain penetration study, single subcutaneous dose, male C57BL/6J mouse (plasma, CSF, brain); conditions: in vivo, sc, 0.0367 mg/kg
Method: as §12, §13, §14, §15, §16, §17, §18, §19, §20

[6] = Solubility in aqueous media / aqueous buffer solutions; format: physicochemical; conditions: hydrochloride salt, aqueous buffer solutions

**Q.** Which plasma concentration [1] does the source give for `CN1CCc2cccc3c2[C@H]1Cc1ccc(O)c(O)c1-3` here?
**A.** 0.207 ng/mL

**Q.** And the concentration at 2 min (in vivo [2]; mean plasma concentration)?
**A.** 3.75 ng/mL

**Q.** And the concentration at 0.5 h (in vivo [2]; mean plasma concentration)?
**A.** 0.559 ng/mL

**Q.** And the concentration at 1 h (in vivo [2]; mean plasma concentration)?
**A.** 0.232 ng/mL

**Q.** What about the concentration at 2 min (in vivo [2]; plasma concentration) of the same compound?
**A.** 3.85 ng/mL

**Q.** And the concentration at 0.5 h (in vivo [2]; plasma concentration)?
**A.** 0.582 ng/mL

**Q.** And the concentration at 1 h (in vivo [2]; plasma concentration)?
**A.** 0.257 ng/mL

**Q.** What about the Tmax ([3]; male, C57BL/6J, sc, 0.0367 mg/kg) of the same compound?
**A.** 11.7 min

**Q.** And the plasma concentration [3]?
**A.** BLOQ

**Q.** And the concentration at […] (in vivo [4]; 0.0367 mg/kg, plasma concentration)?
**A.** 10.1 ng/mL

**Q.** What about the concentration at 0.5 h (in vivo [4]; brain concentration, Conc. (ng/g)) of the same compound?
**A.** 38 ng/g

**Q.** And the concentration at 0.5 h (in vivo [4]; brain concentration, Conc. (ng/mL))?
**A.** 7.6 ng/mL

**Q.** What about the concentration at 0.5 h (in vivo [4]; brain concentration, Mean) of the same compound?
**A.** 39.6 ng/g

**Q.** And the concentration at […] (in vivo [4]; brain concentration, Mean)?
**A.** 48.4 ng/g

**Q.** What about the concentration at 0.5 h (in vivo [4]; plasma concentration) of the same compound?
**A.** 5.06 ng/mL

**Q.** And the concentration at 1 h (in vivo [4]; plasma concentration)?
**A.** 1.82 ng/mL

**Q.** And the concentration at […] (in vivo [4]; plasma concentration)?
**A.** 7.46 ng/mL and 8.5 ng/mL

**Q.** And the concentration at 0.5 h (in vivo [4]; plasma concentration, Mean)?
**A.** 5.15 ng/mL

**Q.** What about the concentration at 1 h (in vivo [4]; plasma concentration, Mean) of the same compound?
**A.** 1.65 ng/mL

**Q.** What about the concentration at […] (in vivo [4]; plasma concentration, Mean) of the same compound?
**A.** 6.5 ng/mL and 8.16 ng/mL

**Q.** And the AUC(0-t) (in vivo [4]; sc, 0.0367 mg/kg, AUClast)?
**A.** 5.1 ng·h/mL

**Q.** And the AUC(0-inf) (in vivo [4]; sc, 0.0367 mg/kg, AUC∞)?
**A.** 5.99 ng·h/mL

**Q.** What about the Cmax (in vivo [4]; sc, 0.0367 mg/kg, Cmax) of the same compound?
**A.** 8.56 ng/mL

**Q.** What about the MRT inf (in vivo [4]; sc, 0.0367 mg/kg, MRTInf) of the same compound?
**A.** 32.5 min

**Q.** What about the Cmax [5] of the same compound?
**A.** 7.78 ng/mL

**Q.** With `CN1CCc2cccc3c2[C@@H]1Cc1ccc(O)c(O)c1-3.Cl` as the compound, how does the solubility [6] read?
**A.** low solubility
